Measured values taken from US9096594B2, “Kinase inhibitors and methods of use thereof” (priority 2012, dated 2015).
Values after ≈ are worked out from the molar mass of the structure shown. Read-outs that look alike come from different tables or passages of the source.

Experiments:
[1] = molecular target: T1, GSK3α (Homo sapiens (Human), UniProt P49840); conditions: read-out: IC50 (μM), GSK3α
[2] = molecular target: T2, GSK3β (Homo sapiens (Human), UniProt P49841); conditions: read-out: IC50 (μM), GSK3β
T2 sequence (P49841 whole entry): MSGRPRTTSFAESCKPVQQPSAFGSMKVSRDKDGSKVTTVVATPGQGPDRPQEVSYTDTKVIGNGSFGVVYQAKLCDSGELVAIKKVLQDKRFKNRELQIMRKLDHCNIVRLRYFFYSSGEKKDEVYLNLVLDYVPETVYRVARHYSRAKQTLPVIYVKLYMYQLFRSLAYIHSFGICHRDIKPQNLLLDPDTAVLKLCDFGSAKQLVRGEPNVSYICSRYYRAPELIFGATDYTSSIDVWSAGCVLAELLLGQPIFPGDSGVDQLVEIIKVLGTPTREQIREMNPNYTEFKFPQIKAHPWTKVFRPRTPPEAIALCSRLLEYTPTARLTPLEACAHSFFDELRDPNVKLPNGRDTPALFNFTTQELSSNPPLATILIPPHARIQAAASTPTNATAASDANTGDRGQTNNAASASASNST

[3] = molecular target: T2, GSK3β
[4] = system: amphetamine-induced hyperactivity in mice; assay: Amphetamine-induced hyperactivity (AIH); format: in vivo, mouse; conditions: intracerebroventricular injection, vs vehicle
[5] = molecular target: T2, GSK3β; remark: listed apart in the source
Description: (§1) Human GSK3β as a GST fusion expressed in baculoviral system was purchased from BPS Bioscience (San Diego, Calif.). […] Reactions were incubated at room temperature for 60 minutes. 2.5 μL/well of ADP-Glo (Promega, V9103) was added with BioRAPTR, and incubated at room temperature for 40 minutes followed by addition of 5 μL/well of ADP-Glo detection reagent (Promega, V9103) with Combi nL (Thermo, Waltham, Mass.) and incubation at room temperature for 30 minutes. The plates were read on a ViewLux (PerkinElmer, Waltham, Mass.) for luminescence. Data were scaled using the positive and neutral controls and fitted for IC50 as described below.
(§2) 100 mL/well compounds were pinned. […] Incubated at room temperature for 60 minutes. Added 20 μL/well of ADP-glo (Promega, V9103) with Combi, and incubated at room temperature for 40 minutes. Added 40 μL/well of ADP-glo (Promega, V9103) with Combi, incubated at room temperature for 30 minutes. Read on Envision for luminescence.

[6] = molecular target: CDK5 (Homo sapiens (Human), UniProt Q00535); assay: Carna Biosciences kinase assay, CDK5; format: biochemical
CDK5, sequence (Q00535 whole entry): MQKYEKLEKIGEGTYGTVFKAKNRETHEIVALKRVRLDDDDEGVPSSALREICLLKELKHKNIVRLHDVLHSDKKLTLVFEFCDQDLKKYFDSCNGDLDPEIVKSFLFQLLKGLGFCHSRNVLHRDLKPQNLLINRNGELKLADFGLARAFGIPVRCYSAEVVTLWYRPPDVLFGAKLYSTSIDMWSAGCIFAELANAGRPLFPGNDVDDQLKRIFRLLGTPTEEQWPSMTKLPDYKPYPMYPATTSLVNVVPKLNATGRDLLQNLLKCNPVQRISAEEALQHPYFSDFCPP
CDK5, sequence (Q15078 99-307 partner): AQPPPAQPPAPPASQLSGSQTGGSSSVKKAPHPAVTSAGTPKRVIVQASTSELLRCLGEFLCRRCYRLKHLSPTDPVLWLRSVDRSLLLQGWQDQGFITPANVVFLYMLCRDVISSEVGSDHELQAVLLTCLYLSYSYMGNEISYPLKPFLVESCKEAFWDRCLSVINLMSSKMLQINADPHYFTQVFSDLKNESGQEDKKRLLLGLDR
Description: (§3) Briefly, a selection of compounds was screened against a panel of kinases at a single concentration of 10 μM. […] This was completed utilizing one of two assays depending on the kinase being examined.
(§4) Test compounds were dissolved in and diluted with dimethylsulfoxide (DMSO) to generate a 100× sample solution. These were then diluted to 4× sample solutions in assay buffer to make the final test compound solutions. Reference compounds for assay control were prepared similarly.
(§5) A solution of IMAP binding reagent (IMAP Screening Express kit; Molecular Devices) (60 μL) was added to each well and incubated for 30 minutes.
(§6) A solution of termination buffer (QuickScout Screening assist MSA; Carna Biosciences) (60 μL) was added to each well. The entire reaction mixture was then applied to a LabChip3000 system (Caliper Life Science) and the product and substrate peptide peaks were separated and quantified.
(§7) The assay utilized was identical to that of the single point inhibitory activity determination (MSA) but run in dose response. […] A solution of termination buffer (QuickScout Screening assist MSA; Carna Biosciences) (60 μL) was added to each well. The entire reaction mixture was then applied to a LabChip3000 system (Caliper Life Science) and the product and substrate peptide peaks were separated and quantified.

[7] = molecular target: T1, GSK3α
Description: GSK3β Microfluidic Mobility-Shift Assay
(§8) Reactions were terminated by the addition of 10 mM EDTA. Substrate and product were separated electrophoretically and fluorescence intensity of the substrate and product was determined by Labchip EZ Reader II (Caliper Life Sciences, MA). The kinase activity was measured as percent conversion. The reactions were performed in duplicate for each sample. […] The results were analyzed by Genedata Assay Analyzer. The percent inhibition was plotted against the compound concentration and the IC50 value was determined from the logistic dose-response curve fitting.

[8] = system: SH-SY5Y cells; assay: Cellular toxicity in SH-SY5Y cells; conditions: highest testing concentration of 30 μM
Description: Biochemical characterization of these synthesized compounds were assayed against GSK3β and CDK5/p25, with CDK5/p25 serving as a counter target of GSK3β selectivity. […] The effects of these compounds on survival of SH-SY5Y pathophysiology cells were also monitored.

[9] = mouse plasma, 5 hours
Description: Plasma stability was determined at 37° C. at 5 hours in both human and mouse plasma. […] Compounds were incubated at 37° C. for 5 hours with a 250 rpm orbital shake with time points taken at 0 and 5 hours.

[10] = system: phospho-Tau (Ser199) in SH-SY5Y cells; assay: Tau phosphorylation (Ser199) ELISA in SH-SY5Y cells; format: cell-based, human; conditions: Homo sapiens, SH-SY5Y, read-out: p-Tau (μM)
Description: Tau Phosphorylation and Total Tau Assay
SH-SY5Y cells were maintained in DMEM supplemented with 10% heat-inactivated FBS and 1% penicillin-streptomycin (Invitrogen) unless otherwise stated. ELISA kits for phospho-Tau (Ser199) and total Tau detection were purchased from Invitrogen (KHB0041, and KHB7041 respectively). Briefly, SH-SY5Y cells were seeded at 50,000 cells/200 μL/well in 96 well plates and after overnight incubation, treated with various doses of chemical compounds at 0.2 μL/well. The next day cells were washed with PBS twice before being lysed in 100 μL Lysis buffer/well. […]
A standard protocol using an immunoassay kit to quantify total Tau protein and phospho-Tau (Ser199) protein in SH-SY5Y human neuroblastoma cells was employed. […]
Well strips were warmed and inserted into the frame. […] Samples were loaded to each well that would be analyzed for total Tau, 85 μl standard diluent buffer and 15 μl cell lysate were added. To each well that will be analyzed for pTau (Ser199) 50 μl standard diluent buffer+50 μl cell lysate were added. […] Anti-total Tau was added to wells being analyzed for total Tau, anti-pTau (Ser199) was added to wells being analyzed for pTau (Ser199), and plates were tapped gently on the side to mix. […] Absorbance of each well was read at 450 nm (within 2 hours of adding stop solution).

[11] = molecular target: CDK2/CycA2 (Homo sapiens (Human), UniProt P24941); assay: Carna Biosciences kinase assay, CDK2/CycA2; format: biochemical; conditions: read-out: % Inhibition at 10 μM, CDK2/CycA2
Description: as §3, §4, §5, §6, §7

[12] = molecular target: T2, GSK3β; assay: biochemical
[13] = system: panel of 311 kinases; assay: Kinome-wide selectivity profile (Carna Biosciences, 311 kinases); format: biochemical
Description: as §3, §4, §5, §6

[14] = molecular target: T1, GSK3α; assay: biochemical
[15] = molecular target: T2, GSK3β; remark: listed apart in the source
Description: GSK3β Microfluidic Mobility-Shift Assay
as §8

[16] = system: β-catenin nuclear translocation in U2-OS cells; assay: β-Catenin nuclear localization assay; format: cell-based
Description: β-Catenin Nuclear Localization Assay
U2-OS cells stably expressing two complimentary β-galactosidase fragments (one part on β-Catenin and the other constitutively expressed in the cell nucleus) were maintained in DMEM F12 supplemented with 10% FBS. When β-catenin translocates to the nucleus, the complimentary fragments form a complete β-galactosidase, the amount of which is then quantified by β-galactosidase activity (DiscoveRx). Cells were seeded in a 384-well CulturPlate (Perkin Elmer, Boston, Mass.) with 10,000 per well in 20 μL DMEM F12 containing 10% FCS, 100 U/ml penicillin and 100 μg/mL streptomycin. After overnight incubation at 37° C., cells were stimulated with 100 mL test compound/well and then returned to the incubator for 6 h. Cells were disrupted using 12 μL substrate-containing lysis buffer from the PathHunter Detection Kit in the formulation specified by the supplier (DiscoveRx). Plates were incubated in the dark for 1 h at room temperature before measurement of P3-galactosidase activity (luminescence) on an EnVision plate reader (PerkinElmer, Waltham, Mass.).

[17] = physchem; conditions: phosphate buffered saline (PBS) with 1% DMSO, 23 °C, pH 7.4, aqueous buffer, kinetic from dmso stock
[18] = system: TCF/LEF reporter in HEK293-pBARL cells; assay: cells
Description: (§9) HEK293-pBARL cells were derived from HEK293 cells and they stably expressed a firefly-luciferase reporter gene driven by a promoter containing 12 copies of TCF/LEF binding sequences. These cells were maintained in DMEM and supplemented with 10% FBS and 1% penicillin-streptomycin (Invitrogen). Reporter gene assays were conducted in anti-biotic free media. […] These cells also contained a renilla-luciferase reporter gene driven by the ubiquitous EF1α promoter as a control. HEK293-pBarl reporter cell lines were seeded into 384-well culture plates (Corning) at 6000 cells/well. 24 hours after plating, cells were treated overnight with relevant compounds and assayed using DualGlo assay kit (Promega). Luminescent intensities were read by EnVision (PerkinElmer, Waltham, Mass.). Firefly luciferase intensity is normalized by renilla luciferase intensity.
(§10) Cells were cultured in 384 well plates to appropriate density (40 μl total plating volume). 24 hours after plating, cells were treated with 100 nl compounds. 24 hours after incubation with compounds (48 hours after plating), assay reagents were prepared by mixing Luciferase Assay solution with Luciferase substrate and Stop & Glo solution to Stop & Glo substrate (extra reagents can be aliquoted and frozen for future use and are stable for at least one freeze/thaw cycle). […] The plate was spun down and 10 minutes were allowed for signal stabilization. Luciferase signal on the Perkin Elmer EnVision using the following parameters: Distance between plate & detector (mm)=0.2; Measurement time(s)=0.1; Glow (CT2) correction factor=0. Once the initial data is secure, a volume of Stop & Glo was added equal to each well equal to the volume of Luciferase reagent added above (If 10 μl Luciferase Reagent was added, 10 μl Stop & Glo was also added). The plate was spun down and 10 minutes were allowed for signal stabilization. The plate was read on the EnVision using the same parameters detailed above.

[19] = molecular target: T2, GSK3β; assay: biochemical; remark: listed apart in the source
Description: as §1, §2

[20] = GSH stability; format: physicochemical; conditions: 48 hours
Description: Stability was determined in the presence of PBS pH […] and 50 μM glutathione with 0.1% DMSO. Each compound was prepared in duplicate on six separate plates and allowed to equilibrate at room temperature with a 250 rpm orbital shake for 48 hours. One plate was removed at each time point (0, 2, 4, 8, 24, and 48 hours). […] Additionally, to the remaining material at each time point, acetonitrile was added to force dissolution of compound (to test for recovery of compound). An aliquot of this was also analyzed by UPLC-MS.

[21] = system: TCF/LEF reporter in HEK293-pBARL cells; conditions: read-out: TCF/LEF EC50
Description: as §9, §10

[22] = Plasma protein binding (equilibrium dialysis), human plasma; format: in vitro ADME
Description: Plasma protein binding was determined by equilibrium dialysis using the Rapid Equilibrium Dialysis (RED) device (Pierce Biotechnology, Rockford, Ill.) for both human and mouse plasma. Each compound was prepared in duplicate at 5 μM in plasma (0.95% acetonitrile, 0.05% DMSO) and added to one side of the membrane (200 μl) with PBS pH 7.4 added to the other side (350 μl). Compounds were incubated at 37° C. for 5 hours with a 250 rpm orbital shake.

[23] = PBS stability; format: physicochemical; conditions: 48 hours of incubation, acetonitrile recovery
Description: Stability was determined in the presence of PBS pH 7.4 with 0.1% DMSO. Each compound was prepared in duplicate on six separate plates and allowed to equilibrate at room temperature with a 250 rpm orbital shake for 48 hours. One plate was removed at each time point (0, 2, 4, 8, 24, and 48 hours). […] Additionally, to the remaining material at each time point, acetonitrile was added to force dissolution of compound (to test for recovery of compound). An aliquot of this was also analyzed by UPLC-MS.

[24] = in vitro; conditions: mouse, mouse plasma, pH 7.4
Description: Plasma protein binding was determined by equilibrium dialysis using the Rapid Equilibrium Dialysis (RED) device (Pierce Biotechnology, Rockford, Ill.) for both human and mouse plasma. […] Compounds were incubated at 37° C. for 5 hours with a 250 rpm orbital shake.

[25] = molecular target: CDK2/CycE1 (Homo sapiens (Human), UniProt P24941); assay: Carna Biosciences kinase assay, CDK2/CycE1; format: biochemical; conditions: read-out: % Inhibition at 10 μM, CDK2/CycE1
Description: as §3, §4, §5, §6, §7

[26] = M (mouse)
[27] = molecular target: CDK9 (Homo sapiens (Human), UniProt P50750); assay: Carna Biosciences kinase assay, CDK9; format: biochemical
CDK9, sequence (P50750 whole entry): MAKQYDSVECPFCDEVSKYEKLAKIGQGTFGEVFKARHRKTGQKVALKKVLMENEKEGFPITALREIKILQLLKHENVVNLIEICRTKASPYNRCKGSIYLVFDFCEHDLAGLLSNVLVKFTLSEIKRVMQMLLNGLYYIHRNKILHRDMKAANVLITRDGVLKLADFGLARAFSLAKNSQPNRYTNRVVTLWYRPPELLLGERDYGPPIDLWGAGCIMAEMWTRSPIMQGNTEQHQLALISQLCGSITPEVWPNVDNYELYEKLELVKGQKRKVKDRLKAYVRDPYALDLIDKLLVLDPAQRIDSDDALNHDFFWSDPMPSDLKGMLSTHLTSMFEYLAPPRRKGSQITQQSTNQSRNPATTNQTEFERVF
CDK9, sequence (O60563 whole entry partner): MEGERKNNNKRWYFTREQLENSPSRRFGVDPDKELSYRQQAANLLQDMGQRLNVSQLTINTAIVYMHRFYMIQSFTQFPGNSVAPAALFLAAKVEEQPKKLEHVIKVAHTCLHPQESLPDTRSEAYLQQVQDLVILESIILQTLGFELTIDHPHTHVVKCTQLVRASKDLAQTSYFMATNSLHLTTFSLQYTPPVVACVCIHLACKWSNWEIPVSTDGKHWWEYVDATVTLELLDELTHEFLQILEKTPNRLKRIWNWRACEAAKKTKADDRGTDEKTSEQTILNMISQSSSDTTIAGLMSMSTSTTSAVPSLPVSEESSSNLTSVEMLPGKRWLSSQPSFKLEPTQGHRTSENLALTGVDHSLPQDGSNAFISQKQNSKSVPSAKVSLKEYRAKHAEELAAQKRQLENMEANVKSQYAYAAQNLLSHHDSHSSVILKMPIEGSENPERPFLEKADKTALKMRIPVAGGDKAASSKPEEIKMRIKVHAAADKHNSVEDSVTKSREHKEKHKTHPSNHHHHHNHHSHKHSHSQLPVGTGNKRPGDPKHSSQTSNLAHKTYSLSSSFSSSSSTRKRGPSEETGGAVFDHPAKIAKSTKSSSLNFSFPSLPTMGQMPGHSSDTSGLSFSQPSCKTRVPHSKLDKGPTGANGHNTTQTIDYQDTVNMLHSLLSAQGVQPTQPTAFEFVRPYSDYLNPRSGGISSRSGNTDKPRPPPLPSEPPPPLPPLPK
Description: as §3, §4, §5, §6

[28] = molecular target: PLK1 (Homo sapiens (Human), UniProt P53350); assay: Carna Biosciences kinase assay, PLK1; format: biochemical
PLK1, sequence (P53350 whole entry): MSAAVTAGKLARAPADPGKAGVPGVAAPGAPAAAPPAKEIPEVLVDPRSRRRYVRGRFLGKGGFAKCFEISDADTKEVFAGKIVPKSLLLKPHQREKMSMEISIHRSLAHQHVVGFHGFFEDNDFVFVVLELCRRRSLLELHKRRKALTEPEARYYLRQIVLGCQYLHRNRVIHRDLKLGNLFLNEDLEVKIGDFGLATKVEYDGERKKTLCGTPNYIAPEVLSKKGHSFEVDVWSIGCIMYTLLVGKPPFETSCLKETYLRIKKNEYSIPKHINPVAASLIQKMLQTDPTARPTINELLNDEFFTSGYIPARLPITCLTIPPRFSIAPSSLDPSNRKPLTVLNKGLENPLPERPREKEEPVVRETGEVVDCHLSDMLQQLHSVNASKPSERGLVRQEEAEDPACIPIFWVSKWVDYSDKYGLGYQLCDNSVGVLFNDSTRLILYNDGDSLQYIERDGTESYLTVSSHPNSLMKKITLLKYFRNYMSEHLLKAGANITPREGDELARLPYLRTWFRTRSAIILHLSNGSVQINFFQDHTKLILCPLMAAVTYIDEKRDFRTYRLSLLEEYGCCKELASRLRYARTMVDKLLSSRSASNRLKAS
Description: as §3, §4, §5, §6

[29] = molecular target: Erk5 (Homo sapiens (Human), UniProt Q13164); assay: Carna Biosciences kinase assay, Erk5; format: biochemical
Erk5, sequence (Q13164 whole entry): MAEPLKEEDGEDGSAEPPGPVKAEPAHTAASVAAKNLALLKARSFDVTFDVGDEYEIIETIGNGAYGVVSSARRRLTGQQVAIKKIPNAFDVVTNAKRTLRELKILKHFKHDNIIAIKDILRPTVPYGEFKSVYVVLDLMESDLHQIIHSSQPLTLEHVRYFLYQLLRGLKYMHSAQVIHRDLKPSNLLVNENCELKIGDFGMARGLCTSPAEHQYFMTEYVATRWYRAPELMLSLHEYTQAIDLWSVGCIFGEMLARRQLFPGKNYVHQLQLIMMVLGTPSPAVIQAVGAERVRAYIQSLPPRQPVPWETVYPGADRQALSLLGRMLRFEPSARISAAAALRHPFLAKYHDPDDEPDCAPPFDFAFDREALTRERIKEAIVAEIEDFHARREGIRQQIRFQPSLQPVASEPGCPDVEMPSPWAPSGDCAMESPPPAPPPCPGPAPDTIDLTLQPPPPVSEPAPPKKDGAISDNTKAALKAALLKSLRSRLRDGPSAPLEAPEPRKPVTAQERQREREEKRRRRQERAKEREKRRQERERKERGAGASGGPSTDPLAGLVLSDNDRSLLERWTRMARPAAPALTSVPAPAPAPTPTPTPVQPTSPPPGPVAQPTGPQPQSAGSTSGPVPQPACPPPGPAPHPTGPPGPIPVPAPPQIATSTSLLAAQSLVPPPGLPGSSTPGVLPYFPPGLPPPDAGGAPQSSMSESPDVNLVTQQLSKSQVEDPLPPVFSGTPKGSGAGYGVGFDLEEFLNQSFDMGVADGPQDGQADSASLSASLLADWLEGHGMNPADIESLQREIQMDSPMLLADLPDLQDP
Description: as §3, §4, §5, §6

[30] = molecular target: LIMK1 (Homo sapiens (Human), UniProt P53667); assay: Carna Biosciences kinase assay, LIMK1; format: biochemical
LIMK1, sequence (P53667 whole entry): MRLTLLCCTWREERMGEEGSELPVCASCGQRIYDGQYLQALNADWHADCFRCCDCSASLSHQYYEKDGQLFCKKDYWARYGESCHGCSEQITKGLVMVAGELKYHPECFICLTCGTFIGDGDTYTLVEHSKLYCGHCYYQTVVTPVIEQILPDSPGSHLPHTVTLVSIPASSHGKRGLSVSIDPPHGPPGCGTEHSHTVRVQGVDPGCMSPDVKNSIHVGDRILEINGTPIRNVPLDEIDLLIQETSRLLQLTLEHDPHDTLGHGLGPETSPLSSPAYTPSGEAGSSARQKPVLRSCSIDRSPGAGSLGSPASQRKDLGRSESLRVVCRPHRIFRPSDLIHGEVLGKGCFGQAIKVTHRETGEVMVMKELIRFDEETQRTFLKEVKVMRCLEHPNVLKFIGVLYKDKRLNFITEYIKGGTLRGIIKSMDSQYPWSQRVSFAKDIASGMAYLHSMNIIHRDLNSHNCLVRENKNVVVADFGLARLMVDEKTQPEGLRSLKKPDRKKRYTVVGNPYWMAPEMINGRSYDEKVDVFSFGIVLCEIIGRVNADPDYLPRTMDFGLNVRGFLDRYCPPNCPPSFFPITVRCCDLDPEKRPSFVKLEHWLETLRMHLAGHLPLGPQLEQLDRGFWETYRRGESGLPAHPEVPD
Description: as §3, §4, §5, §6

T1 sequence (P49840 whole entry): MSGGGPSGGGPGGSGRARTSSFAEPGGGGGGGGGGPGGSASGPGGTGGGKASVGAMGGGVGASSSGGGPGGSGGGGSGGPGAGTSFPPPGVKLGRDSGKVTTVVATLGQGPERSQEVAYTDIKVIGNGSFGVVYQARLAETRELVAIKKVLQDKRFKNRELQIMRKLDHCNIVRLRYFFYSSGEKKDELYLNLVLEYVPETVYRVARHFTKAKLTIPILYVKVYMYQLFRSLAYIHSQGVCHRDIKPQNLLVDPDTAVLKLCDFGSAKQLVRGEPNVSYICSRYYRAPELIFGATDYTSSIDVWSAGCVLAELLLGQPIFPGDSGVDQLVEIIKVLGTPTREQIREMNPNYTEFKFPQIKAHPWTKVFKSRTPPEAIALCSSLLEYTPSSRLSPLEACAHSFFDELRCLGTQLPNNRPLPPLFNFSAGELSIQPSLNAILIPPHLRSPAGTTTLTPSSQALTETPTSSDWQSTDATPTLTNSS

COc1ccccc1[C@@H]1C2=C(CC(C)(C)CC2=O)Nc2n[nH]c(C)c21 [Compound 22]
IC50 [1]: 0.027 µM | IC50 [2]: 0.061 µM | mode of inhibition (Lineweaver-Burk plot) [3]: competitive inhibition | effect on amphetamine-induced hyperactivity, ICV injection [4]: attenuate amphetamine-induced hyperactivity | IC50 [5]: < 100 nM | IC50 ([6]; dose response): 1.4 µM | IC50 [7]: < 100 nM

COc1ccccc1[C@@H]1C2=C(CC(C)(C)CC2=O)Nc2n[nH]c(C(F)(F)F)c21 [Compound 54, (R)-4-(2-methoxyphenyl)-7,7-dimethyl-3-(trifluoromethyl)-6,7,8,9-tetrahydro-2H-pyrazolo[3,4-b]quinolin-5(4H)-one]
cellular toxicity in SH-SY5Y cells [8]: no cellular toxicity | Plasma stability % remaining (in mice) [9]: 99% | IC50 [10]: 1.03 µM | inhibition at 10 µM [11]: 78.7% | IC50 [12]: 12 nM | IC50 ([5]; read-out: IC50 ADP Glo GSK3β): 20 nM | % of the kinome (311 kinases) inhibited [13]: 2.6% | IC50 [14]: 13 nM | IC50 [15]: < 100 nM | EC50 ([16]; Homo sapiens, U2OS, read-out: beta-Catenin Translocation (μM)): 5.28 µM | EC50 ([16]; read-out: beta-Catenin translocation EC50): 6.97 µM | solubility at 24 h [17]: 85 µM (≈ 33.3 µg/mL) | EC50 ([18]; read-out: TCF/LEF (μM)): 4.8 µM | EC50 ([18]; read-out: TCF/LEF EC50 (μM)): 5 µM | IC50 [19]: < 0.1 µM | IC50 ([19]; IC50 ADP Glo GSK3β (μM)): 0.02 µM | IC50 ([19]; IC50 against GSK3β at 7 μM ATP): 0.024 µM | IC50 ([19]; IC50 against GSK3β at 100 μM ATP): 0.143 µM | IC50 ([19]; Target IC50 (nM), GSK3β): 0.024 µM | stability in glutathione (GSH), % remaining [20]: 99% | EC50 [21]: 5350 nM | Plasma protein binding % bound, human plasma [22]: 93% | fraction unbound at 5 h, 5 µM ([22]; human, pH 7.4, read-out: Plasma protein binding % bound, human plasma (converted)): 0.07 | stability in PBS, % still present [23]: more than 95% | fraction unbound at 5 h, 5 µM [24]: 0.09 | inhibition at 10 µM [25]: 73.5% | IC50 [7]: < 100 nM | Microsomal Stability (M:) [26]: M: 0%

Cc1c[nH]c(-c2cnc(NCCNc3ccc(C#N)cn3)nc2-c2ccc(Cl)cc2Cl)n1 [CHIR99021]
% Inhibition at 10 μM, CDK9 [27]: 88.1% | % Inhibition at 10 μM, CDK9 ([27]; listed as CHIR 99021): greater than 50% | number of kinases inhibited greater than 50% at 10 μM ([13]; 10 μM, 311 kinases): 21 kinases | EC50 ([18]; read-out: TCF/LEF (μM)): 6 µM | % Inhibition at 10 μM, PLK1 [28]: 59.2% | % Inhibition at 10 μM, CDK5 ([6]; 10 μM): 51.2% | % Inhibition at 10 μM, Erk5 [29]: 61.3% | % Inhibition at 10 μM, LIMK1 [30]: 78.9% | % Inhibition at 10 μM, LIMK1 ([30]; listed as CHIR 99021): greater than 50% | Microsomal Stability (M:) [26]: M: 4%
